The subject of one test is ER stressed SCG neurons. In words: Survival of tunicamycin-treated (ER stressed) SCG sympathetic neurons after microinjection. In kind it is cell-based, mice. The settings on record: Table 1B (FIG. 16), microinjected into cytoplasm, tunicamycin 2 μM, counted after 3 days, CDNF (400). Put shortly:
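Newborn mouse SCG neurons grown 5-6 days with 30 ng/ml NGF, then microinjected with CDNF (FL or C-terminal) plasmids (10 ng/ul, EGFP reporter) or proteins (200 ng/ul, Dextran Texas Red). Tunicamycin (2 μM) added next day. Fluorescent survivors counted blindly after 3 days as % of initial; compared with vector or PBS (ANOVA/Dunnett).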

In another test the test system is dopamine neurons. In words: Survival of TH-positive dopamine neurons in dissociated midbrain floor cultures. In kind it is cell-based, mouse. The settings on record: 5 days; for survived neurons as % compared to neurons grown in the presence of GDNF: Table 3B (FIG. 17), AVG. Put shortly: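 Dissociated E13.5 NMRI mouse midbrain floor neurons grown five days in DMEM/F12 with N2, with polypeptides at a range of concentrations, GDNF (100 ng/ml), or nothing. TH-immunopositive neurons were counted by imaging. Values are a percentage of GDNF-maintained TH-positive neurons, as mean ± SEM from at least three independent cultures.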

As to “TLDLASVDLRKMRVAEPKQILHSWGEECRACAEKTDYVNLIQEPAPKYA (Mutated C-CDNF peptide) [pep14]”, the “survived neurons as % compared to neurons grown in the presence of NGF” value with ER stressed SCG neurons (exp1) worked out at 55.76 % NGF; in the test on ER stressed SCG neurons (exp2), 34.32 % NGF; in the test with ER stressed SCG neurons (exp3), 48.43 % NGF. For the same sequence, the “survived neurons as % compared to neurons grown in the presence of GDNF” value with dopamine neurons (1 ng/ml) worked out at 71.49 % GDNF; in the test with dopamine neurons (10 ng/ml), 84.24 % GDNF; in the test on dopamine neurons (100 ng/ml) it was 85.71 % GDNF; in the test on dopamine neurons (1000 ng/ml), 82.81 % GDNF. The “protection of dopaminergic neurons in culture (result in words)” value in the test on dopamine neurons (added to the culture medium, TH-positive neurons counted) is “best protective effect”.
On to “TLDLASVDLRKMRVAELKQILHSWGEESRACAEKTDYVNLIQELAPKYA (C-CDNF peptide with single amino acid substitution) [pep9]”, for which the “survived neurons as % compared to neurons grown in the presence of NGF” value was found to be 41.23 % NGF in the test on ER stressed SCG neurons (exp1), 44.00 % NGF in the test on ER stressed SCG neurons (exp2) and 44.44 % NGF in the test on ER stressed SCG neurons (exp3). Moreover, the “survived neurons as % compared to neurons grown in the presence of GDNF” value with dopamine neurons (1 ng/ml) worked out at 62.74 % GDNF; in the test on dopamine neurons (10 ng/ml), 69.29 % GDNF; in the test with dopamine neurons (100 ng/ml), 71.62 % GDNF; with dopamine neurons (1000 ng/ml), 67.12 % GDNF.

Values taken from patent US12479895B2, “C-terminal CDNF and MANF fragments, pharmaceutical compositions comprising same and uses thereof” (MyNeuroCure Oy, priority 2018, dated 2025).
